{"source": "patent US9220928B2", "about": "“Plant extracts from Acronychia species and their use” (EcoBiotics Ltd, priority 2008, dated 2015)", "system": "Streptococcus salivarius K40", "experiment": "Antibacterial growth inhibition assay", "type": "cell-based", "conditions": "HPLC fractions and two pure compounds, further test; Table 9", "method": "The bacteria used in these studies were: • Streptococcus salivarius […] • Bacillus subtilis All antibacterial assays were carried out in a laminar flow cabinet using the protocol described below. Growth or no-growth was assessed visually and by ELISA reader. […] This was then placed in the bacterial shaker at 37° C. at 210 rpm overnight. • 2) A blank reading was made on the spectrophotometer at 600 nm using […] of Columbia broth. A reading of 200 μL of the starter culture was then taken. • 3) In calculations, a final concentration of 0.005 was desired. The formula used for dilution of x mL starter was: x*A600=0.005*desired volume • 4) 90 uL of MeOH was added to each well of a 96 well flat bottomed plate. 10 μL of sample was added to the top well and diluted 1:10 down the plate. Alternatively the top rows were left empty of MeOH and 100 μL of sample was added and then diluted at 1:10 down the plate. • 5) The plates were then left to dry in a biological safety cabinet for 2-3 hours or until all solvent had evaporated off the plate. • 6) 100 μL of diluted bacterial culture was then added to each well of the plate. The plate was then placed in the bacterial incubator at 37° C. overnight. […] For quantitation, plates were read at 405 nm (ELISA). […]", "data": [{"smiles": "COc1cc(CCC(=O)O)ccc1OC/C=C(\\C)CC/C=C(\\C)CCC=C(C)C", "note": "[EBC125, 3-(4-farnesyloxy-3-methoxyphenyl)propionic acid]", "values": [{"measurement": "Amount of fraction giving 100% inhibition of growth of S. salivarius", "value": 1, "unit": "µL"}]}, {"smiles": "CC(C)=CCC/C(C)=C/CC/C(C)=C/COc1ccc(CCC(=O)O)cc1", "note": "[EBC111, 3-(4-farnesyloxyphenyl)propionic acid]", "values": [{"measurement": "Amount of fraction giving 100% inhibition of growth of S. salivarius", "value": 10, "unit": "Ag"}]}]}
